Measurements from article PMC11866022, “Long-Chain Cyclic Arylguanidines as Multifunctional Serotonin Receptor Ligands with Antiproliferative Activity” (ACS Omega, 2025).

Key:
[1] = biological target: T1, 5-HT6 (Homo sapiens, UniProt P50406); assay: Functional cAMP assay (LANCE Ultra), 5-HT6; format: cell-based; conditions: for function at 5-HT6: in words; for Kb: Table 3, unit inferred, cAMP, antagonist mode, 5-CT
T1 construct: expressed in transfected cells; host or cells: HEK293
Description: (§1) Their functional activity was also evaluated by assessing their ability to inhibit agonist-induced cAMP production in HEK293 cells (Table 3). Extended radioisotope tests were aimed at detecting potential affinity for other aminergic receptors, whose role in cancer treatment may be important. Functions were tested for all receptors. The essence of functional tests results from the fact that serotonin stimulates tumor progression. Therefore, the ligand should have the potential to reduce its concentration, i.e., act as an antagonist.[39]
(§2) The detailed procedure is presented in previous publications.[53] The functional activity of the compounds was assessed using the LANCE Ultra cAMP detection kit (PerkinElmer). […] For other receptors (5-HT7R, 5-HT1AR, and 5-HT6R), 5-CT was used at 10, 100, and 1000 nM, respectively. Each compound was tested in triplicate across eight concentrations. The inhibitory constant (Kb) for each antagonist was calculated using the Cheng–Prusoff equation.

[2] = tested on: MCF7 breast cancer cells; assay: Antiproliferative activity (MTS), MCF7; format: cell-based, human; conditions: Homo sapiens, MCF7; MTS assay, 72 h
Description: (§3) These cell lines were characterized by different mutation profiles, the main one being the variable status of the p53 protein. In detail, U87MG cells have a wild-type p53 protein, while astrocytoma and the rest of GBM cells harbor mutated p53 protein. Additional assays were performed on MCF7 breast cancer and AsPC-1 pancreatic cancer cells. The wide range of tested lines was aimed at screening the anticancer potential of the tested compounds. The first represents one of the most common and the second one of the most aggressive cancers in the world. Comparing the activity of compounds on GBM cells to other types of cancer may reveal their selectivity and usefulness in targeted therapies. The cytotoxicity of the compounds on normal human astrocytes (NHA) and Feline catus astrocyte (PG-4) was determined. Tests on normal lines serve to verify the potential toxicity of the tested compounds on healthy cells. Due to the targeting of CNS tumors, astrocytes were selected as normal lines.
(§4) The detailed procedure is presented in previous publications.[53] […] Cells were cultured in appropriate media, supplemented with FBS, antibiotics, and other supplements, and incubated at 37 °C with 5% CO2. […] Cell viability was assessed using the MTS assay, and the inhibitory concentration (IC50) was calculated using GraphPad Prism 8.0. Each compound was tested in triplicate across multiple experiments.

[3] = tested on: U87MG glioblastoma cells; assay: Antiproliferative activity (MTS), U87MG; format: cell-based, human; conditions: Homo sapiens, U-87 MG; MTS assay
Description: as §3, §4
Supplementary materials - Biological research
B) U87MG glioblastoma multiforme line.
and U87MG glioblastoma multiforme line for C) PP 3; D) PP 6; E) PP 8; F) PP 10; G) PP 11; H) PP

[4] = biological target: 5-HT5A (Homo sapiens, UniProt P47898); assay: Radioligand binding assay, 5-HT5A ([3H]-LSD); conditions: Table 3, unit inferred; 3.5 nM [3H]-LSD
Description: as §1
The detailed procedure is presented in previous publications.[53] Assays were performed by incubating for 1 h at 37 °C (room temperature for 5-HT1A) in 200 μL volumes on 96-well plates. The reaction was terminated by rapid filtration using Unifilter plates, and radioactivity on the filters was measured with a PerkinElmer Microbeta plate reader. Radioligands used were:
Eight concentrations (10^–4 to 10^–11 M) were tested in triplicate for each compound. Inhibition constants (Ki) were calculated using the Cheng–Prusoff equation.[54] The results are expressed as the means of at least two independent experiments.

[5] = tested on: Danio rerio; assay: Fish embryo toxicity test (OECD 236); format: in vivo; conditions: Danio rerio embryos, 96 h of exposure
Description: Two compounds, PP 10 and PP 15, were tested for cardiotoxicity in the Danio rerio experimental model (OECD 236 test). […] To assess potential neurotoxic effects, locomotor activity was examined in the Danio rerio model. Zebrafish larvae’s response to light and dark transitions serves as a useful method for detecting neurotoxicity. […] In our experiment, we switched from light to dark conditions, as zebrafish larvae are known to avoid light and seek darker areas. This behavior helps them evade predators and maintain ideal environmental conditions.
Figure 4 A: Toxicity of PP 10 and PP 15in vivo in the Danio reiro embryo toxicity test. […] Cardiotoxicity of compounds B: PP 10 and C: PP 15 was evaluated by measuring the heart rate (beats per minute) in 5-dpf Danio rerio larvae, maintained in the E3 fish embryo growth medium. Statistical analysis was performed using GraphPad Prism 10.0.0, with one-way ANOVA followed by Dunnett’s comparison test (*p < 0.05, compared to the negative control E3).
The toxicity of compounds was evaluated using two tests: the fish embryo toxicity (FET) test and neurotoxicity assessment.[53] […] Acute toxicity was assessed by monitoring signs such as coagulation of fertilized eggs, somite formation absence, tailbud separation, and lack of heartbeat. The LD50 value was calculated, and cardiovascular effects were monitored through heartbeat observations.

[6] = biological target: T2, D2 (Homo sapiens, UniProt P14416); assay: Functional cAMP assay (LANCE Ultra), D2; format: cell-based; conditions: Table 3, unit inferred, antagonist mode, 10 nM dopamine
T2 construct: expressed in transfected cells; host or cells: HEK293
Description: as §1, §2

[7] = tested on: HepG2 hepatoma cells; assay: Hepatotoxicity (MTS), HepG2; format: cell-based, human; conditions: 48 h; for hepatotoxic effect on HepG2: 1–10 μM; for HepG2 cell viability: 50 or 100 μM
Description: As a next step, we decided to investigate the potential toxicity of our lead compounds by assessing their toxic effects on the liver (in vitro), heart, and brain (in vivo). The safety profile was assessed through a hepatotoxicity assay using HepG2 hepatoma cells. (Figures 2E,F, 3E,F).

[8] = in vitro; conditions: PAMPA
[9] = tested on: Feline catus astrocyte (PG-4); assay: Cytotoxicity, PG-4 astrocytes; format: cell-based; conditions: Felis catus; normal astrocyte line
Description: as §3, with “The chosen group of ligands was further examined for their ability to inhibit proliferation across multiple cancer cell lines related to the CNS system (1321N1, U87MG, LN-229, and U-251). These” for “These”

[10] = tested on: HSA and AGP (24:1); assay: TRANSILXL PPB plasma protein binding assay; conditions: human, TRANSILXL PPB assay, HSA and AGP in a ratio 24:1

T1 sequence (P50406 whole entry): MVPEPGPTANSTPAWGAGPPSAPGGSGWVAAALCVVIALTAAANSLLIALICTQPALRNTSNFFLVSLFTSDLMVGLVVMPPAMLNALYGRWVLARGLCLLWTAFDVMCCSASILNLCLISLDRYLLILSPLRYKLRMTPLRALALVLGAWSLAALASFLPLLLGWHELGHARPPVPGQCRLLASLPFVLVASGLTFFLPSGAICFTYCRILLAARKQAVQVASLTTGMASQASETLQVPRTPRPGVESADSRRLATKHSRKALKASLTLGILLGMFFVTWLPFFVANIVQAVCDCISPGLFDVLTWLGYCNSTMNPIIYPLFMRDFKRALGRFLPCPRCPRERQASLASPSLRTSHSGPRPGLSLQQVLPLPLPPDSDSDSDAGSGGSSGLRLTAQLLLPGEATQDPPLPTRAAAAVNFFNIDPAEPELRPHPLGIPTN
Sequence of 5-HT5A (P47898 whole entry, species assumed): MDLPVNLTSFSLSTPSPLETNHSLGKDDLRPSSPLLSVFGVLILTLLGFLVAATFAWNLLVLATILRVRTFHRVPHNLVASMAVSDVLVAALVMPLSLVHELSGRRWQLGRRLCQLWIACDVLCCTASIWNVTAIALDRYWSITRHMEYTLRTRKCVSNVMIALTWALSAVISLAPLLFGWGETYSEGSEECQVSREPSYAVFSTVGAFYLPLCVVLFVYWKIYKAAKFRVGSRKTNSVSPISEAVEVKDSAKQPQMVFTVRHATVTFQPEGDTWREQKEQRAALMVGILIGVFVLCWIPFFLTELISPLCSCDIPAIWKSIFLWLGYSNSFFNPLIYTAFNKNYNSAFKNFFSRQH
T2 sequence (P14416 whole entry): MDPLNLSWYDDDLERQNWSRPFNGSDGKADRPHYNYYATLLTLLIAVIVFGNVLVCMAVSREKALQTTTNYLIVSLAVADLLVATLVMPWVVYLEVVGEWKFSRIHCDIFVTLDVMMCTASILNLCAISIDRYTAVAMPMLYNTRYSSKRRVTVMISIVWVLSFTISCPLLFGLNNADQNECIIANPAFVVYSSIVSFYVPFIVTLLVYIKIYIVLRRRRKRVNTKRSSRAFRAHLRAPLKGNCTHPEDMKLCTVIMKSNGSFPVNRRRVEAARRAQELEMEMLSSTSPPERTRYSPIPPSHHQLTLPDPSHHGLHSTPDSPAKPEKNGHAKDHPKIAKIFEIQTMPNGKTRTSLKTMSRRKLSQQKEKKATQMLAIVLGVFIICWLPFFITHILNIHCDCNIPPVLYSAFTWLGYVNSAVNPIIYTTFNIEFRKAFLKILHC

| IC50 [2] | IC50 [3] | fraction unbound [10] | SMILES | function at 5-HT6 [1] | Ki [4] | LD50 / LC50 (Figure 4) [5] | Kb [6] | hepatotoxic effect on HepG2 [7] | HepG2 cell viability [7] | Papp [8] | IC50 [9] | Kb [1] | cytotoxic effect on HepG2 ([7]; 10 μM) |
| --- | --- | --- | --- | --- | --- | --- | --- | --- | --- | --- | --- | --- | --- |
| 19.3 ± 0.3 µM | 13.6 ± 1.1 µM | 0.001 ± 3e-07 | CC1NC(NCCCCCCNS(=O)(=O)c2c(Cl)ccc3ccccc23)=Nc2ccccc21 (stereo not drawn) [PP 13, 2-Chloro-N-{6-[(4-methyl-3,4-dihydroquinazolin-2-yl)amino]hexyl}naphthalene-1-sulfonamide] | agonist | – | – | 0.858 µM | no hepatotoxic effects | statistically significant decrease in cell viability | 0.19 ×10⁻⁶ cm/s | – | – | – |
| 15.7 ± 1.6 µM | 13.6 ± 0.6 µM | 0.004 | O=S1(=O)c2cccc3cccc(c23)N1CCCCCCNC1=Nc2ccccc2CN1 [PP 24, 3-{6-[(3,4-Dihydroquinazolin-2-yl)amino]hexyl}-2λ^6-thia-3-azatricyclo[6.3.1.0^4,^12]dodeca-1(11),4(12),5,7,9-pentaene-2,2-dione] | – | – | – | – | – | – | 0.73 ×10⁻⁶ cm/s | – | – | strong cytotoxic effect |

The remaining lines, values behind:

| SMILES | IC50 [2] | IC50 [3] | fraction unbound [10] | function at 5-HT6 [1] | Ki [4] | LD50 / LC50 (Figure 4) [5] | Kb [6] | hepatotoxic effect on HepG2 [7] | HepG2 cell viability [7] | Papp [8] | IC50 [9] | Kb [1] | cytotoxic effect on HepG2 ([7]; 10 μM) |
| --- | --- | --- | --- | --- | --- | --- | --- | --- | --- | --- | --- | --- | --- |
| O=S(=O)(c1cccc2ccccc12)N1CCN(CCNC2=Nc3ccccc3CN2)CC1 [PP 6, N-{2-[4-(Naphthalene-1-sulfonyl)piperazin-1-yl]ethyl}-3,4-dihydroquinazolin-2-amine] | > 25 µM | > 25 µM | – | agonist | 0.328 µM | – | – | – | – | – | – | – | – |
| CC1NC(NCCCCCCNS(=O)(=O)c2cccc3ccccc23)=Nc2ccccc21 (stereo not drawn) [PP 10, N-{6-[(4-Methyl-3,4-dihydroquinazolin-2-yl)amino]hexyl}naphthalene-1-sulfonamide] | > 25 µM | 20.7 ± 1.2 µM | 0.003 | antagonist | 0.059 µM | 15.34 µg/mL | 1.81 µM | no hepatotoxic effects | statistically significant decrease in cell viability | 0.03 ×10⁻⁶ cm/s | > 25 µM | 0.036 µM | – |
| O=S(=O)(NCCCCCCNc1ncc2ccccc2n1)c1cccc2ccccc12 [PP 15, N-{6-[(Quinazolin-2-yl)amino]hexyl}naphthalene-1-sulfonamide] | > 25 µM | > 25 µM | – | antagonist | 1.09 µM | 2.147 µg/mL | – | no hepatotoxic effects | statistically significant decrease in cell viability | 0.13 ×10⁻⁶ cm/s | > 25 µM | 0.048 µM | – |
